Measured values as given in ChEMBL document CHEMBL4715697, “Synthesis and biological activity of benzamide DNA minor groove binders” (2016).

Tests used:
Format in all cases: functional
NCI-H322M = experiment: Growth inhibition of human NCI-H322M cells assessed as cell growth at 0.1 uM incubated for 48 hrs by sulforhodamine B assay relative to control; details: read-out: Activity
NCI/ADR-RES = experiment: Growth inhibition of human NCI/ADR-RES cells assessed as cell growth at 0.1 uM incubated for 48 hrs by sulforhodamine B assay relative to control; details: read-out: Activity
MOLT-4 [1] = experiment: Growth inhibition of human MOLT-4 cells assessed as cell growth at 100 uM incubated for 48 hrs by sulforhodamine B assay relative to control; details: read-out: Activity
K562 = experiment: Growth inhibition of human K562 cells assessed as cell growth at 1 uM incubated for 48 hrs by sulforhodamine B assay relative to control; details: read-out: Activity
HCT-15 = experiment: Growth inhibition of human HCT-15 cells assessed as cell growth at 1 uM incubated for 48 hrs by sulforhodamine B assay relative to control; details: read-out: Activity
A549 [2] = experiment: Growth inhibition of human A549/ATCC cells assessed as cell growth at 100 uM incubated for 48 hrs by sulforhodamine B assay relative to control; details: read-out: Activity
HOP-62 = experiment: Growth inhibition of human HOP-62 cells assessed as cell growth at 0.1 uM incubated for 48 hrs by sulforhodamine B assay relative to control; details: read-out: Activity
NCI-H460 [3] = experiment: Growth inhibition of human NCI-H460 cells assessed as cell growth at 1 uM incubated for 48 hrs by sulforhodamine B assay relative to control; details: read-out: Activity
CAKI-1 = experiment: Growth inhibition of human CAKI-1 cells assessed as cell growth at 100 uM incubated for 48 hrs by sulforhodamine B assay relative to control; details: read-out: Activity
OVCAR-8 = experiment: Growth inhibition of human OVCAR-8 cells assessed as cell growth at 100 uM incubated for 48 hrs by sulforhodamine B assay relative to control; details: read-out: Activity
HT-29 = experiment: Growth inhibition of human HT-29 cells assessed as cell growth at 0.01 uM incubated for 48 hrs by sulforhodamine B assay relative to control; details: read-out: Activity
MDA-MB-231 = experiment: Growth inhibition of human MDA-MB-231 cells incubated for 48 hrs by sulforhodamine B assay
PC-3 = experiment: Growth inhibition of human PC-3 cells incubated for 48 hrs by sulforhodamine B assay
SF-268 = experiment: Growth inhibition of human SF-268 cells incubated for 48 hrs by sulforhodamine B assay
SK-OV-3 = experiment: Growth inhibition of human SK-OV-3 cells assessed as cell growth at 0.1 uM incubated for 48 hrs by sulforhodamine B assay relative to control; details: read-out: Activity
MDA-MB-435 [4] = experiment: Growth inhibition of human MDA-MB-435 cells assessed as cell growth at 100 uM incubated for 48 hrs by sulforhodamine B assay relative to control; details: read-out: Activity
A549 [5] = experiment: Growth inhibition of human A549/ATCC cells assessed as cell growth at 1 uM incubated for 48 hrs by sulforhodamine B assay relative to control; details: read-out: Activity
RPMI-8226 [6] = experiment: Growth inhibition of human RPMI-8226 cells assessed as cell growth at 0.01 uM incubated for 48 hrs by sulforhodamine B assay relative to control; details: read-out: Activity
MOLT-4 [7] = experiment: Growth inhibition of human MOLT-4 cells incubated for 48 hrs by sulforhodamine B assay
Malme-3M = experiment: Growth inhibition of human Malme-3M cells assessed as cell growth at 0.1 uM incubated for 48 hrs by sulforhodamine B assay relative to control; details: read-out: Activity
A498 [8] = experiment: Growth inhibition of human A498 cells incubated for 48 hrs by sulforhodamine B assay
T47D = experiment: Growth inhibition of human T47D cells assessed as cell growth at 1 uM incubated for 48 hrs by sulforhodamine B assay relative to control; details: read-out: Activity
RXF 393 = experiment: Growth inhibition of human RXF 393 cells assessed as cell growth at 0.01 uM incubated for 48 hrs by sulforhodamine B assay relative to control; details: read-out: Activity
MDA-MB-435 [9] = experiment: Growth inhibition of human MDA-MB-435 cells assessed as cell growth at 0.01 uM incubated for 48 hrs by sulforhodamine B assay relative to control; details: read-out: Activity
HCC 2998 = experiment: Growth inhibition of human HCC 2998 cells assessed as cell growth at 0.1 uM incubated for 48 hrs by sulforhodamine B assay relative to control; details: read-out: Activity
786-0 = experiment: Growth inhibition of human 786-0 cells assessed as cell growth at 0.1 uM incubated for 48 hrs by sulforhodamine B assay relative to control; details: read-out: Activity
A498 [10] = experiment: Growth inhibition of human A498 cells assessed as cell growth at 100 uM incubated for 48 hrs by sulforhodamine B assay relative to control; details: read-out: Activity
NCI-H226 [11] = experiment: Growth inhibition of human NCI-H226 cells assessed as cell growth at 1 uM incubated for 48 hrs by sulforhodamine B assay relative to control; details: read-out: Activity
DU-145 = experiment: Growth inhibition of human DU-145 cells assessed as cell growth at 0.1 uM incubated for 48 hrs by sulforhodamine B assay relative to control; details: read-out: Activity
IGROV-1 [12] = experiment: Growth inhibition of human IGROV-1 cells incubated for 48 hrs by sulforhodamine B assay
HL-60(TB) = experiment: Growth inhibition of human HL-60(TB) cells assessed as cell growth at 0.1 uM incubated for 48 hrs by sulforhodamine B assay relative to control; details: read-out: Activity
RPMI-8226 [13] = experiment: Growth inhibition of human RPMI-8226 cells incubated for 48 hrs by sulforhodamine B assay
NCI-H226 [14] = experiment: Growth inhibition of human NCI-H226 cells assessed as cell growth at 0.01 uM incubated for 48 hrs by sulforhodamine B assay relative to control; details: read-out: Activity
IGROV-1 [15] = experiment: Growth inhibition of human IGROV-1 cells assessed as cell growth at 1 uM incubated for 48 hrs by sulforhodamine B assay relative to control; details: read-out: Activity
NCI-H460 [16] = experiment: Growth inhibition of human NCI-H460 cells assessed as cell growth at 0.01 uM incubated for 48 hrs by sulforhodamine B assay relative to control; details: read-out: Activity
[17] = read-out: LC50 (the source's name)
[18] = read-out: pLC50 (the source's name) (converted)

CC(=O)Nc1cc(CO[Si](C)(C)C(C)(C)C)cc(NC(=O)c2ccc(C(=O)Nc3cccc(NC(=O)CCCN(C)C)c3)cc2)c1
92%: growth at 0.1 µM (Malme-3M) | growth at 1 µM (NCI-H226 [11])
97%: growth at 0.1 µM (NCI/ADR-RES) | growth at 0.1 µM (HCC 2998) | growth at 0.1 µM (HL-60(TB))
98%: growth at 100 µM (MOLT-4 [1]) | growth at 100 µM (A549 [2]) | growth at 0.1 µM (HOP-62) | growth at 0.1 µM (SK-OV-3) | growth at 0.01 µM (MDA-MB-435 [9])
> 75.9 µM: GI50 (MDA-MB-231; read-out: pGI50 (converted)) | CC50 (MDA-MB-231; [18]) | TGI (MDA-MB-231; read-out: pTGI) | GI50 (PC-3; read-out: pGI50 (converted)) | CC50 (PC-3; [18]) | TGI (PC-3; read-out: pTGI) | GI50 (SF-268; read-out: pGI50 (converted)) | LC50 (SF-268; read-out: pLC50 (converted)) | TGI (SF-268; read-out: pTGI) | GI50 (MOLT-4 [7]; read-out: pGI50 (converted)) | CC50 (MOLT-4 [7]; [18]) | TGI (MOLT-4 [7]; read-out: pTGI) | LC50 (concentration giving 50% net cell kill) (A498 [8]; read-out: pLC50 (converted)) | TGI (A498 [8]; read-out: pTGI) | GI50 (IGROV-1 [12]; read-out: pGI50 (converted)) | CC50 (IGROV-1 [12]; [18]) | TGI (IGROV-1 [12]; read-out: pTGI) | GI50 (RPMI-8226 [13]; read-out: pGI50 (converted)) | CC50 (RPMI-8226 [13]; [18]) | TGI (RPMI-8226 [13]; read-out: pTGI)
96%: growth at 0.01 µM (NCI-H226 [14])
95%: growth at 0.1 µM (NCI-H322M) | growth at 1 µM (K562) | growth at 0.01 µM (RPMI-8226 [6])
77%: growth at 100 µM (CAKI-1)
100%: growth at 1 µM (A549 [5]) | growth at 0.1 µM (DU-145)
88%: growth at 100 µM (OVCAR-8) | growth at 100 µM (MDA-MB-435 [4])
87%: growth at 1 µM (HCT-15)
102%: growth at 0.01 µM (HT-29) | growth at 0.01 µM (NCI-H460 [16])
> 75 µM: GI50 (MDA-MB-231; read-out: GI50) | CC50 (MDA-MB-231; [17]) | TGI (MDA-MB-231; read-out: TGI) | GI50 (PC-3; read-out: GI50) | CC50 (PC-3; [17]) | TGI (PC-3; read-out: TGI) | GI50 (SF-268; read-out: GI50) | LC50 (SF-268; read-out: LC50) | TGI (SF-268; read-out: TGI) | GI50 (MOLT-4 [7]; read-out: GI50) | CC50 (MOLT-4 [7]; [17]) | TGI (MOLT-4 [7]; read-out: TGI) | LC50 (concentration giving 50% net cell kill) (A498 [8]; read-out: LC50) | TGI (A498 [8]; read-out: TGI) | GI50 (IGROV-1 [12]; read-out: GI50) | CC50 (IGROV-1 [12]; [17]) | TGI (IGROV-1 [12]; read-out: TGI) | GI50 (RPMI-8226 [13]; read-out: GI50) | CC50 (RPMI-8226 [13]; [17]) | TGI (RPMI-8226 [13]; read-out: TGI)
101%: growth at 0.01 µM (RXF 393)
93%: growth at 0.1 µM (786-0)
99%: growth at 1 µM (NCI-H460 [3])
51%: growth at 100 µM (A498 [10])
107%: growth at 1 µM (T47D)
81%: growth at 1 µM (IGROV-1 [15])

CC(=O)Nc1cc(CCl)cc(NC(=O)c2ccc(C(=O)Nc3cccc(NC(=O)CCCN(C)C)c3)cc2)c1
99%: growth at 100 µM (MOLT-4 [1])
98%: growth at 0.1 µM (NCI/ADR-RES)
96%: growth at 1 µM (K562) | growth at 100 µM (OVCAR-8) | growth at 0.01 µM (RXF 393) | growth at 0.01 µM (MDA-MB-435 [9])
93%: growth at 0.1 µM (HL-60(TB))
91%: growth at 1 µM (NCI-H226 [11])
105%: growth at 0.01 µM (NCI-H460 [16])
103%: growth at 0.1 µM (NCI-H322M) | growth at 0.01 µM (HT-29) | growth at 0.1 µM (SK-OV-3)
90%: growth at 1 µM (HCT-15)
110%: growth at 0.01 µM (RPMI-8226 [6]) | growth at 1 µM (IGROV-1 [15])
95%: growth at 0.01 µM (NCI-H226 [14])
94%: growth at 100 µM (MDA-MB-435 [4]) | growth at 1 µM (A549 [5]) | growth at 1 µM (T47D) | growth at 0.1 µM (HCC 2998)
104%: growth at 0.1 µM (HOP-62) | growth at 0.1 µM (Malme-3M) | growth at 0.1 µM (786-0)
106%: growth at 0.1 µM (DU-145)
100%: growth at 100 µM (CAKI-1)
> 100 µM: GI50 (MDA-MB-231; read-out: GI50) | CC50 (MDA-MB-231; [17]) | TGI (MDA-MB-231; read-out: TGI) | GI50 (MDA-MB-231; read-out: pGI50 (converted)) | CC50 (MDA-MB-231; [18]) | TGI (MDA-MB-231; read-out: pTGI) | GI50 (PC-3; read-out: GI50) | CC50 (PC-3; [17]) | TGI (PC-3; read-out: TGI) | GI50 (PC-3; read-out: pGI50 (converted)) | CC50 (PC-3; [18]) | TGI (PC-3; read-out: pTGI) | GI50 (SF-268; read-out: GI50) | LC50 (SF-268; read-out: LC50) | TGI (SF-268; read-out: TGI) | GI50 (SF-268; read-out: pGI50 (converted)) | LC50 (SF-268; read-out: pLC50 (converted)) | TGI (SF-268; read-out: pTGI) | GI50 (MOLT-4 [7]; read-out: GI50) | CC50 (MOLT-4 [7]; [17]) | TGI (MOLT-4 [7]; read-out: TGI) | GI50 (MOLT-4 [7]; read-out: pGI50 (converted)) | CC50 (MOLT-4 [7]; [18]) | TGI (MOLT-4 [7]; read-out: pTGI) | GI50 (A498 [8]; read-out: GI50) | LC50 (concentration giving 50% net cell kill) (A498 [8]; read-out: LC50) | TGI (A498 [8]; read-out: TGI) | GI50 (A498 [8]; read-out: pGI50 (converted)) | LC50 (concentration giving 50% net cell kill) (A498 [8]; read-out: pLC50 (converted)) | TGI (A498 [8]; read-out: pTGI) | GI50 (IGROV-1 [12]; read-out: GI50) | CC50 (IGROV-1 [12]; [17]) | TGI (IGROV-1 [12]; read-out: TGI) | GI50 (IGROV-1 [12]; read-out: pGI50 (converted)) | CC50 (IGROV-1 [12]; [18]) | TGI (IGROV-1 [12]; read-out: pTGI) | GI50 (RPMI-8226 [13]; read-out: GI50) | CC50 (RPMI-8226 [13]; [17]) | TGI (RPMI-8226 [13]; read-out: TGI) | GI50 (RPMI-8226 [13]; read-out: pGI50 (converted)) | CC50 (RPMI-8226 [13]; [18]) | TGI (RPMI-8226 [13]; read-out: pTGI)
62%: growth at 100 µM (A498 [10])
88%: growth at 100 µM (A549 [2])
109%: growth at 1 µM (NCI-H460 [3])
